Drawing on PubChem BioAssay AID493147 (Broad Institute, 2011), this text covers activity change, negative = toxicity and AC50 for 71 compounds.

“And” between values parts separate entries of the source, which are not always exact repeats. Identical values can stand only once. Inconclusive results are not listed. The source made the active and inactive calls. How the calls were made is not given here.

A word on the AC50: it is the midpoint of the concentration-response curve, whichever way the signal moves.

Tested on in the first assay: not listed separately
The assay can be described thus: PubChem AID 493147. To be noted: NIH-3T3 viability with fluconazole, Alamar Blue, 48 h; at 2.6 µM (top of the series). For orientation: The colour change of resazurin is a common sign of viable cells or microbes.
In the case of `COc1ccc2c(c1)c1nc3n(c(=O)c1n2CC(=O)N1CCC(C)CC1)CCS3`, the activity change, negative = toxicity was 41.3% (inactive).

Staying with this assay, now noted: NIH-3T3 viability with fluconazole, Alamar Blue, 48 h; at 26 µM (top of the series).
Turning to `COC(=O)Cn1nc(-c2ccc(Cl)cc2)c2ccccc21`, the activity change, negative = toxicity was -6.09% (inactive).
For `O=C(Cn1c2ccccc2c2nc3n(c(=O)c21)CCS3)N1CCCC1`, the activity change, negative = toxicity was -33.6% (inactive) and 2.45% (inactive).
On the same count and under the same terms, in the case of `COC(=O)Cn1nc(-c2ccccc2)c2cc(OC)ccc21` it was -0.175% (inactive); in that of `COc1ccc2c(c1)c1nc3n(c(=O)c1n2CC(=O)N1CCC(Cc2ccccc2)CC1)CCS3`, 8.36% (inactive); in that of `N#Cc1cccc(N2CCN(C(=O)c3ccc(Cl)cc3)CC2)n1`, -27.5% (inactive).
Still for that read-out and setting: in the case of `O=C(Cn1nc(C(=O)N2CCCCC2)c2ccccc21)N1CCOCC1` it was -3.68% (inactive); in that of `O=C(Cn1c2ccc(F)cc2c2nc3n(c(=O)c21)CCS3)N1CCCCCC1`, 21.2% (inactive); in that of `O=C(c1ccc(F)cc1)N1CCN(c2ccccn2)CC1`, -8.14% (inactive).
Take `COC(=O)Cn1nc(-c2ccccc2)c2cc(C)ccc21`: the activity change, negative = toxicity is 3.35% (inactive).
On the same count and under the same terms, under `O=C(Cn1c2ccccc2c2nc3n(c(=O)c21)CCS3)NCCc1ccc(Cl)cc1` stands -12% (inactive); under `COC(=O)Cn1c(-c2ccccc2)nc2ccccc21`, 10.3% (inactive).
The same measure, in the same setting: in the case of `Cc1ccnc(N2CCN(C(=O)c3ccc(Cl)cc3)CC2)c1` it was -20% (inactive); in that of `CCCCC(=O)N1CCN(c2ccccn2)CC1`, 5.32% (inactive).
The same measure, in the same setting: in the case of `CC(C)OC(=O)Cn1nc(-c2ccccc2)c2ccccc21` it was 11.4% (inactive).
On to `O=C(c1ccccc1Cl)N1CCN(c2ccccn2)CC1`, for which the activity change, negative = toxicity was -3.33% (inactive).
Same read-out and setting: in the case of `COC(=O)Cn1nc(-c2ccc(C)cc2)c2ccccc21` it was -25% (inactive).
The same measure, in the same setting: in the case of `COC(=O)[C@@H](C)n1nc(-c2ccccc2)c2ccccc21` (racemic) it was -17.9% (inactive).
In the case of `O=C(c1ccc(Cl)cc1)N1CCN(c2ccc(C(F)(F)F)cn2)CC1`, the activity change, negative = toxicity is 0.409% (inactive).
As to `O=C(O)c1nn(Cc2ccc(Cl)cc2)c2ccccc12`, the activity change, negative = toxicity was -35.3% (inactive).
`COC(=O)Cn1nc(C)c2ccccc21`: the activity change, negative = toxicity is -17.5% (inactive).
Same read-out and setting: under `CC(C)(C)OC(=O)Cn1nc(-c2ccccc2)c2ccccc21` stands 20.8% (inactive); under `N#Cc1ccc(N2CCN(C(=O)c3ccc(Cl)cc3)CC2)nc1`, -32.5% (inactive).
Still for that read-out and setting: in the case of `CC(C)C(=O)N1CCN(c2ccccn2)CC1` it was 10% (inactive).
For `O=c1c2[nH]c3ccc(F)cc3c2nc2n1CCS2`, the activity change, negative = toxicity was 9.27% (inactive).
The same measure, in the same setting: under `N#Cc1ccc(C(=O)N2CCN(c3ccccn3)CC2)cc1` stands 15.4% (inactive); under `O=C(c1cccc(Cl)c1)N1CCN(c2ccccn2)CC1`, -4.09% (inactive); under `Cc1nn(S(C)(=O)=O)c2ccccc12`, -19.3% (inactive).
Same read-out and setting: under `O=C(Cn1c2ccccc2c2nc3n(c(=O)c21)CCS3)N1CCOCC1` stands -8.2% (inactive); under `COC(=O)C(C)(C)n1nc(-c2ccccc2)c2ccccc21`, -1.11% (inactive).
Same read-out and setting: under `COC(=O)CCCn1nc(-c2ccccc2)c2ccccc21` stands -45% (inactive); under `O=c1c2[nH]c3ccccc3c2nc2n1CCS2`, -31.6% (inactive).
Turning to `CCN(CC)C(=O)Cn1c2ccc(F)cc2c2nc3n(c(=O)c21)CCS3`, the activity change, negative = toxicity is -39.8% (inactive).
The same measure, in the same setting: in the case of `CCCNC(=O)Cn1nc(-c2ccccc2)c2ccccc21` it was 20.3% (inactive).
With `COC(=O)Cn1nc(-c2ccccc2)c2cc(Cl)ccc21`, the activity change, negative = toxicity was -3.67% (inactive).
With `COC(=O)Cn1nc(-c2ccccc2)c2ccc(C(F)(F)F)cc21`, the activity change, negative = toxicity was -18.2% (inactive) and -8.9% (inactive).
Consider `COC(=O)Cn1nc(-c2cccc(OC)c2)c2ccccc21`, for which the activity change, negative = toxicity is -29.2% (inactive).
Still for that read-out and setting: in the case of `CNC(=O)Cn1nc(-c2ccccc2)c2ccccc21` it was 2.83% (inactive).
Regarding `COCCn1nc(-c2ccccc2)c2ccccc21`, the activity change, negative = toxicity is -7.82% (inactive).
On the same count and under the same terms, under `O=C(O)Cn1nc(-c2ccccc2)c2ccccc21` stands -23% (inactive); under `c1ccc(-c2nn(Cc3ncco3)c3ccccc23)cc1`, -36.1% (inactive); under `O=C(Cn1c2ccc(F)cc2c2nc3n(c(=O)c21)CCS3)N1CCCCC1`, -20.6% (inactive).
The same measure, in the same setting: in the case of `N#CCn1nc(-c2ccccc2)c2ccccc21` it was 8% (inactive); in that of `O=C1OCCC1n1nc(-c2ccccc2)c2ccccc21` (configuration not stated), 4.08% (inactive); in that of `COC(=O)Cn1nc(-c2ccc(F)cc2)c2ccccc21`, -40.8% (inactive).
Consider `COC(=O)Cn1nc(-c2ccccc2C)c2ccccc21`, for which the activity change, negative = toxicity is 24.8% (inactive).
`O=C(Cn1nc(-c2ccccc2)c2ccccc21)Oc1ccccc1`: the activity change, negative = toxicity was 26.7% (inactive).
The same measure, in the same setting: in the case of `O=C(C1CCCCC1)N1CCN(c2ccccn2)CC1` it was -25.3% (inactive); in that of `COC(=O)Cn1nc(-c2ccccc2)c2ccc(C)cc21`, 16.9% (inactive).
The same measure, in the same setting: in the case of `O=C(Cn1c2ccccc2c2nc3n(c(=O)c21)CCS3)N1CCCCC1` it was -8.42% (inactive).
Still for that read-out and setting: under `O=C(c1ccc(Cl)cc1)N1CCN(c2ncccc2C(F)(F)F)CC1` stands -31.9% (inactive); under `COCCC(=O)N1CCN(c2ccccn2)CC1`, 2.45% (inactive); under `COC(=O)Cn1nc(-c2ccccc2)c2ccccc21`, -33.7% (inactive).

The test system of a further assay is NIH-3T3 viability with fluconazole, Alamar Blue, 48 h. The assay can be described thus: PubChem AID 493147.
Conditions: not given
For the compound `O=C(Cn1c2ccccc2c2nc3n(c(=O)c21)CCS3)N1CCCC1`, the AC50 is < 100 nM.
For `COC(=O)Cn1ncc2ccccc21`, the AC50 was < 100 nM.
On the same count and under the same terms, under `O=C(Cn1nc(-c2ccccc2)c2ccccc21)NCc1ccc(Cl)cc1` stands 25900 nM.
Same read-out and setting: in the case of `O=C(Cn1nc(-c2ccccc2)c2ccccc21)OC1CCC1` it was 191 nM; in that of `COC(=O)Cn1nc(-c2ccccc2)c2ccc(OC)cc21`, < 100 nM.
Still for that read-out and setting: under `COC(=O)Cn1nc(-c2cccc(F)c2)c2ccccc21` stands 12800 nM.
For the compound `COC(=O)Cn1nc(I)c2ccccc21`, the AC50 is 528 nM.
On the same count and under the same terms, under `COc1ccc(NC(=O)Cn2c3ccccc3c3nc4n(c(=O)c32)CCS4)cc1` stands 14900 nM; under `COc1ccc(C(=O)N2CCN(c3ccccn3)CC2)cc1`, 461 nM.
Same read-out and setting: in the case of `COC(=O)Cn1c2ccccc2c2nc3n(c(=O)c21)CCS3` it was 2660 nM; in that of `Cc1cccc(N2CCN(C(=O)c3ccc(Cl)cc3)CC2)n1`, 120 nM.
Same read-out and setting: in the case of `CC1CCN(C(=O)Cn2c3ccccc3c3nc4n(c(=O)c32)CCS4)CC1` it was > 26000 nM (inactive); in that of `O=C(c1ccc(Cl)cc1)N1CCN(c2nc3ccccc3o2)CC1`, 24200 nM; in that of `COC(=O)Cn1nc(-c2ccccc2OC)c2ccccc21`, 1040 nM.
As to `COc1cccnc1N1CCN(C(=O)c2ccc(Cl)cc2)CC1`, the AC50 is 124 nM.
Still for that read-out and setting: in the case of `O=C(c1ccc(Cl)cc1)N1CCN(c2cccc(C(F)(F)F)n2)CC1` it was 17600 nM.
Turning to `COC(=O)Cn1nc(-c2ccc(C(F)(F)F)cc2)c2ccccc21`, the AC50 was < 100 nM.
On the same count and under the same terms, under `COC(=O)Cn1nc(-c2ccc(OC)cc2)c2ccccc21` stands 1020 nM.
On the same count and under the same terms, under `Cc1ccc(N2CCN(C(=O)c3ccc(Cl)cc3)CC2)nc1` stands > 26000 nM (inactive).
